Here are results for one molecule from patent publication US7138270B2, “Assay device and method for chemical or biological screening” (University College Cork—National University of Ireland, Cork, priority 2002, dated 2006).

Each structure is given as a SMILES string.

The data set concerns S. pombe yeast cells. Kind of data set: Respirometric assessment of viability of S. pombe yeast cells treated with toxicant (oxygen uptake, phosphorescent oxygen probe). Type of data set: cell-based. The following applies: S. pombe cells incubated with different concentrations of toxicant, aliquots at different time intervals; FIG. 5. The method, then:
A solid-state oxygen probe comprising a thin film polymer coating of the phosphorescent dye platinum(II)-tetrakis(pentafluorophenyl)porphine (PtTFPP) and polycarbonate was used with the device 1 shown in FIG. 1. One milligram of PtTFPP is dissolved in 0.01% (w/v) solution of polycarbonate (M.ca. 60 000) in chloroform. One microlitre aliquotes of this solution were dispensed to the microwells and allowed to air dry for 10 minutes to produce thin film phosphorescent oxygen-sensitive coating inside the microwells.
S. pombe yeast cells were incubated with different concentrations of cadmium nitrate toxicant. Two μl aliquots were taken from each sample at different time intervals, and placed in the wells of microwell chambers coated with a PtTFPP-polycarbonate solid-state oxygen probe. The respiration profiles of samples were monitored as described in Example 1 above, together with a control sample containing the same concentration of test cells, but without the presence of a toxicant. The levels of oxygen uptake by each sample is evaluated on the basis of time profiles of the phosphorescent signal (initial slopes), compared to those obtained in the control sample. […] This could be extended to compare cells growing in the presence of necessary growth factors, undergoing survival factor deprivation, or undergoing apoptosis.

On to `O=[N+]([O-])[O-].O=[N+]([O-])[O-].[Cd+2]` [cadmium nitrate], for which the “oxygen uptake / initial slope of phosphorescent signal time profile, compared to control sample (cell viability)” value is “decrease in the initial slope and oxygen uptake with respect to control sample”.
